Data from patent publication US5276177A, “Physiologically active substance” (Matsuno; Tetsuya, priority 1991, dated 1994).
In brackets after ≈: the same amount, converted by molar mass.

Columns and labels:
cultured tumor cells = test: antitumor activity against cultured tumor cells (summary statement); type: cell-based
Experimental: (§1) Growth inhibition to Hela S3 cells
(§2) 0.1 Milliliter of a test compound properly diluted with an MEM culture containing 10% fetal bovine serum and 2 mM of glutamine was placed in each of 96 wells of a microtiter plate. Then, trypsinized HeLa S3 cells (ATCC HTB22) were adjusted with the above culture to form a solution containing 3×10^4 cells/ml, and 0.05 ml of the solution was added to each well.
(§3) The above plate was cultured in a carbonic acid gas incubator at 37° C. for 72 hours, and then culture supernatants were removed. 0.1 Milliliter of a culture medium containing 0.02% Neutral Red was added to each well, and the plate was cultured in the carbonic acid gas incubator at 37° C. for 1 hour to stain the cells. After culture supernatants were removed, the remainders were once washed with a physiological saline solution. Then, the dyestuff was extracted with 0.001N hydrochloric acid/30% ethanol, and the absorbance at 550 nm was measured with a microplate reader. In comparison between the absorbance of untreated cells and the absorbance of cells treated with the known concentration of the test compound, the growth inhibition ratio of the cells was calculated on the basis of the following equation. [formula] A: Absorbance of cells treated with the compound B: Absorbance of a well containing no cells
(§4) C: Absorbance of untreated cells […]

HeLa S3 cells = test: Growth inhibition to Hela S3 cells (Neutral Red staining, 72 hours); type: cell-based; conditions: Homo sapiens, 37° C., MEM with 10% fetal bovine serum, 550 nm
Experimental: as §1, §2, §3, §4

growing cells = test: cell cycle analyzed with a flow cytometer; type: cell-based
Solubility = type: physicochemical
[1] = Experientia 44, 230, (1988); cited from earlier work

| SMILES | antitumor activity (cultured tumor cells) | IC50 (HeLa S3 cells) | cell cycle effect (growing cells) | Solubility (Solubility; in acidic water) | Solubility (Solubility; in methanol, ethyl acetate, chloroform and DMSO) | antitumor activity [1] |
| --- | --- | --- | --- | --- | --- | --- |
| CC(=CC(=O)O)CC[C@@]1(C)[C@H](CO)CC[C@@]2(C)C(C)=CCC[C@H]12 [novel physiologically active substance] | exhibits antitumor activity against cultured tumor cells | 87 µg/mL (≈ 271 µM) | terminated the growing cells at S phase and destroyed them | Sparingly soluble in acidic water | Soluble in methanol, ethyl acetate, chloroform and DMSO |  |
| O=C(/C=C/c1ccc(O)c(O)c1)OCCc1ccccc1 [phenetyl cafeate] |  |  |  |  |  | has antitumor activity |
